Experimental data from patent US9309222B2, “Phenyl linked quinolinyl modulators of RORγt” (Janssen Pharmaceutica NV, priority 2012, dated 2016).
pIC50, pKd: −log10 of the molar value. Structures can show the parent of a compound that is named as a salt.

Columns and labels:
human RORγt LBD = molecular target: T1, human RORγt LBD (Homo sapiens, UniProt P51449); assay: RORγt reporter assay (GAL4-RORγt LBD luciferase in HEK293T cells); type: cell-based; conditions: for pIC50: 24 hours compound treatment; for inhibition at 6 µM: HEK-293T, read-out: RORγt reporter Assay, % inhibition @ 6 μM, HEK293T cells, 6 μM compound
T1 construct: expressed in transfected cells
T1 sequence (P51449 258-518): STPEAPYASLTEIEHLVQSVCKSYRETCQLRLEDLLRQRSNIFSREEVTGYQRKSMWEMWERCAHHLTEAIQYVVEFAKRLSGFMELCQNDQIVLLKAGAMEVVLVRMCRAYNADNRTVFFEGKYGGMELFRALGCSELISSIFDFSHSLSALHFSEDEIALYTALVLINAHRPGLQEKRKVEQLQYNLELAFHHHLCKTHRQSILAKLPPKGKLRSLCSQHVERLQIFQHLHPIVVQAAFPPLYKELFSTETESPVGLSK
In short: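 Read-out is the firefly-to-renilla luciferase ratio versus compound concentration, after 24 h compound exposure of cells in phenol-red-free DMEM/5% lipid-reduced FCS. Cells were HEK293T bulk-transfected with a GAL4-responsive firefly reporter (pGL4.31) and GAL4 DBD–wild-type human RORγt LBD fusion (pBIND, renilla as transfection/viability control).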

[1] = molecular target: T2, human RORγt ligand binding domain (RORγt LBD) (Homo sapiens, UniProt P51449); assay: RORγt ThermoFluor assay (thermal shift, ligand binding affinity); conditions: estimated from concentration response of thermal shift
T2 construct: His-tag (N); TurboTEV protease cleavage site (ENLYFQG) (N); made in house; host or cells: E. coli (pHIS1, modified pET vector)
T2 sequence (P51449 with tags, fused parts or gaps): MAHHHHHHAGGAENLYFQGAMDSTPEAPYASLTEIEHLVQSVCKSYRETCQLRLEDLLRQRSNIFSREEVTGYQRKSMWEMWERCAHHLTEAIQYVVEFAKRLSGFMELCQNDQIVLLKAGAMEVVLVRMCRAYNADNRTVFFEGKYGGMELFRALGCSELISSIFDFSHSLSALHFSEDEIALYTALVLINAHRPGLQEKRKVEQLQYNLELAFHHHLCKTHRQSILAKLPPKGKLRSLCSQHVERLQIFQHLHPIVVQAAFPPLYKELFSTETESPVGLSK
In short: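 Thermal shift of 0.065 mg/mL RORγt with 60 μM 1,8-ANS in 100 mM Hepes pH 7.0, 10 mM NaCl, 2.5 mM GSH, 0.002% Tween-20. Compounds in 1:2 series from 10 mM DMSO stock. Dye fluorescence (500 nm emission) tracked versus temperature; ΔTm used to derive KD.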

[2] = system: IL-17 production by CD4 T cells; assay: Human Th17 assay (IL-17 production by CD4 T cells under Th17 differentiation conditions); type: cell-based; conditions: IL-17 in supernatant after 3 days
In short: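 Primary CD4+ T cells from healthy-donor PBMC, preincubated 1 h with titrated compound (0.2% DMSO), then activated with anti-CD3/CD28 beads plus anti-IL4, anti-IFNγ, IL1β, IL23, IL6, TGFβ and IL2.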

Row | SMILES | pIC50 (human RORγt LBD; HEK293T cells) | inhibition at 6 µM (human RORγt LBD) | pKd [1] | pIC50 ([2]; Homo sapiens, CD4+ T, 72 h) | RORγt reporter Assay, % inhibition @ 6 μM (human RORγt LBD; HEK293T cells, 6 μM compound) | pIC50 [2]
1 | COc1ccc(C(O)(c2ccc3nc(Cl)c(-c4ccccc4)c(Cl)c3c2)c2cc(C)no2)cn1 (stereo not shown) [Example 131, (2,4-Dichloro-3-phenylquinolin-6-yl)(6-methoxypyridin-3-yl)(3-methylisoxazol-5-yl)methanol•TFA] | 7.04 | 100% | 7.59 | 6.68 | – | –
2 | Cc1cc(C(O)(c2ccc3nc(Cl)c(-c4ccccc4)c(Cl)c3c2)c2cncn2C)on1 (stereo not shown) [Example 132, (2,4-Dichloro-3-phenylquinolin-6-yl)(1-methyl-1H-imidazol-5-yl)(3-methylisoxazol-5-yl)methanol•TFA] | 7.32 | 103% | 7.80 | 6.89 | – | –
3 | Cc1cc(C(O)(c2ccc(Cl)cc2)c2ccc3nc(N(C)C)c(-c4ccccc4)c(Cl)c3c2)on1 (stereo not shown) [Example 134, (4-Chloro-2-(dimethylamino)-3-phenylquinolin-6-yl)(4-chlorophenyl)(3-methylisoxazol-5-yl)methanol •TFA] | 6.28 | 96% | 6.54 | 5.96 | – | –
4 | Cc1ncc(C(O)(c2ccc(Cl)cc2)c2ccc3nc(C#N)c(-c4ccccc4)c(Cl)c3c2)n1C (stereo not shown) [Example 139, 4-Chloro-6-((4-chlorophenyl)(1,2-dimethyl-1H-imidazol-5-yl)(hydroxy)methyl)-3-phenylquinoline-2-carbonitrile•TFA] | 6.51 | 102% | 7.21 | 6.46 | – | –
5 | Cc1nc(C(O)(c2ccc3nc(Cl)c(-c4ccccc4)c(Cl)c3c2)c2cncn2C)cs1 (stereo not shown) [Example 140, (2,4-Dichloro-3-phenylquinolin-6-yl)(1-methyl-1H-imidazol-5-yl)(2-methylthiazol-4-yl)methanol] | 6.49 | 105% | 6.25 | 5.74 | – | –
6 | Cn1c(C(O)(c2ccc(Cl)cc2)c2ccc3nc(Cl)c(-c4ccccc4)c(Cl)c3c2)cnc1Cl (stereo not shown) [Example 141, (2-Chloro-1-methyl-1H-imidazol-5-yl)(4-chlorophenyl)(2,4-dichloro-3-phenylquinolin-6-yl)methanol] | 6.68 | 99% | 6.21 | 5.92 | – | –
7 | Cc1ccc(C(O)(c2ccc3nc(Cl)c(-c4ccccc4)c(Cl)c3c2)c2cncn2C)c(C)n1 (stereo not shown) [Example 142, (2,4-Dichloro-3-phenylquinolin-6-yl)(2,6-dimethylpyridin-3-yl)(1-methyl-1H-imidazol-5-yl)methanol] | 7.04 | 105% | 8.12 | 6.85 | – | –
8 | CSc1ncc(C(O)(c2ccc(Cl)cc2)c2ccc3nc(Cl)c(-c4ccccc4)c(Cl)c3c2)n1C (stereo not shown) [Example 145, (4-Chlorophenyl)(2,4-dichloro-3-phenylquinolin-6-yl)(1-methyl-2-(methylthio)-1H-imidazol-5-yl)methanol] | 6.60 | 93% | 5.68 | 5.92 | – | –
9 | OC(c1ccc(Cl)cc1)(c1cccnc1)c1ccc2nc(-c3cncnc3)c(-c3ccccc3)c(Cl)c2c1 (stereo not shown) [Example 152, (4-Chloro-3-phenyl-2-(pyrimidin-5-yl)quinolin-6-yl)(4-chlorophenyl)(pyridin-3-yl)methanol] | 6.46 | 97% | 6.11 | 5.92 | – | –
10 | Cn1cncc1C(O)(c1cccnc1)c1cc(F)c2nc(Cl)c(-c3ccccc3)c(Cl)c2c1 (stereo not shown) [Example 154, (2,4-Dichloro-8-fluoro-3-phenylquinolin-6-yl)(1-methyl-1H-imidazol-5-yl)(pyridin-3-yl)methanol•TFA] | 6.01 | 90% | 6.92 | 5.72 | – | –
11 | Cc1ccc(C(O)(c2cc(C)c3nc(Cl)c(-c4ccccc4)c(Cl)c3c2)c2sccc2C)cn1 (stereo not shown) [Example 158, (2,4-Dichloro-8-methyl-3-phenylquinolin-6-yl)(6-methylpyridin-3-yl)(3-methylthiophen-2-yl)methanol] | 6.31 | 79% | 5.70 | < 5.22 | – | –
12 | Cc1cc(C(O)(c2cc(C)c3nc(Cl)c(-c4ccccc4)c(Cl)c3c2)c2cncn2C)ccn1 (stereo not shown) [Example 159, (2,4-Dichloro-8-methyl-3-phenylquinolin-6-yl)(1-methyl-1H-imidazol-5-yl)(2-methylpyridin-4-yl)methanol•TFA] | 7.77 | 93% | 8.92 | 7.12 | – | –
13 | Cc1cc(C(O)(c2ccnc(C(F)(F)F)c2)c2cncn2C)cc2c(Cl)c(-c3ccccc3)c(Cl)nc12 (stereo not shown) [Example 160, (2,4-Dichloro-8-methyl-3-phenylquinolin-6-yl)(1-methyl-1H-imidazol-5-yl)(2-(trifluoromethyl)pyridin-4-yl)methanol•TFA] | 6.92 | 97% | 8.21 | 6.16 | – | –
14 | Cn1cncc1C(O)(c1ccc(Cl)cc1)c1cc2c(Cl)c(-c3ccccc3)c(Cl)nc2cc1F (stereo not shown) [Example 161, (4-Chlorophenyl)(2,4-dichloro-7-fluoro-3-phenylquinolin-6-yl)(1-methyl-1H-imidazol-5-yl)methanol•TFA] | 6.77 | 104% | 7.11 | 6.44 | – | –
15 | Cn1cncc1C(O)(c1ccncc1)c1ccc2nc(C(F)(F)F)c(-c3ccccc3)c(C(F)(F)F)c2c1 (stereo not shown) [Example 164, (1-Methyl-1H-imidazol-5-yl)(3-phenyl-2,4-bis(trifluoromethyl)quinolin-6-yl)(pyridin-4-yl)methanol•TFA] | 7.74 | 98% | 8.92 | 7.59 | – | –
16 | O=C(O)C(F)(F)F.OC(c1cccnc1)(c1cccc(Cl)c1)c1ccc2nc(C(F)(F)F)c(-c3ccccc3)c(C(F)(F)F)c2c1 (stereo not shown) [Example 165, (3-Chlorophenyl)(3-phenyl-2,4-bis(trifluoromethyl)quinolin-6-yl)(pyridin-3-yl)methanol•TFA] | 7.32 | – | 8.62 | – | 98% | 7.01
17 | [O-][n+]1cccc(C(O)(c2cccc(Cl)c2)c2ccc3nc(C(F)(F)F)c(-c4ccccc4)c(C(F)(F)F)c3c2)c1 (stereo not shown) [Example 166, 3-((3-Chlorophenyl)(hydroxy)(3-phenyl-2,4-bis(trifluoromethyl)quinolin-6-yl)methyl)pyridine 1-oxide•TFA] | 6.74 | 103% | 7.44 | 6.82 | – | –
18 | OC(c1ccccc1)(c1cccnc1)c1ccc2nc(C(F)(F)F)c(-c3ccccc3)c(C(F)(F)F)c2c1 (stereo not shown) [Example 170, Phenyl(3-phenyl-2,4-bis(trifluoromethyl)quinolin-6-yl)(pyridin-3-yl)methanol] | 7.46 | 98% | 8.38 | 7.02 | – | –
19 | OC(c1ccc(C(F)(F)F)cc1)(c1cccnc1)c1ccc2nc(Cl)c(-c3ccccc3)c(Cl)c2c1 (stereo not shown) [Example 171, (2,4-Dichloro-3-phenylquinolin-6-yl)(pyridin-3-yl)(4-(trifluoromethyl)phenyl)methanol•TFA] | 6.49 | 85% | 6.85 | 6.52 | – | –
20 | Cn1nncc1C(O)(c1ccc2nc(C(F)(F)F)c(-c3ccccc3)c(C(F)(F)F)c2c1)c1cnnn1C [Example 182, Bis(1-methyl-1H-1,2,3-triazol-5-yl)(3-phenyl-2,4-bis(trifluoromethyl)quinolin-6-yl)methanol] | – | 94% | 8.82 | 8.15 | – | –
21 | Cn1cncc1C(O)(c1ccc(Cl)cc1)c1ccc2nc(Cl)c(-c3cccc(Cl)c3)c(Cl)c2c1 (stereo not shown) [Example 187, (4-Chlorophenyl)(2,4-dichloro-3-(3-chlorophenyl)quinolin-6-yl)(1-methyl-1H-imidazol-5-yl)methanol] | – | 73% | 7.00 | < 5.22 | – | –
